Measured values from patent US10047051B2, “Substituted pyridines and method of use” (AbbVie S.á{acute over (.)}r.l., priority 2015, dated 2018).

What was measured:
Assay type in all cases: cell-based
CFTR ΔF508 mutant = molecular target: T1, CFTR ΔF508 mutant (Homo sapiens, UniProt P13569, DEL508-508); test: YFP-halide influx assay for the CFTR-ΔF508 mutation (CFBE41o- cells); details: forskolin 10.67 μM; for EC50: from (1−F/F0) vs concentration plot
T1 construct: expressed in transfected cells; host or cells: CFBE41o- cells, adenoviral transduction
T1 sequence (P13569 with tags, fused parts or gaps DEL508-508): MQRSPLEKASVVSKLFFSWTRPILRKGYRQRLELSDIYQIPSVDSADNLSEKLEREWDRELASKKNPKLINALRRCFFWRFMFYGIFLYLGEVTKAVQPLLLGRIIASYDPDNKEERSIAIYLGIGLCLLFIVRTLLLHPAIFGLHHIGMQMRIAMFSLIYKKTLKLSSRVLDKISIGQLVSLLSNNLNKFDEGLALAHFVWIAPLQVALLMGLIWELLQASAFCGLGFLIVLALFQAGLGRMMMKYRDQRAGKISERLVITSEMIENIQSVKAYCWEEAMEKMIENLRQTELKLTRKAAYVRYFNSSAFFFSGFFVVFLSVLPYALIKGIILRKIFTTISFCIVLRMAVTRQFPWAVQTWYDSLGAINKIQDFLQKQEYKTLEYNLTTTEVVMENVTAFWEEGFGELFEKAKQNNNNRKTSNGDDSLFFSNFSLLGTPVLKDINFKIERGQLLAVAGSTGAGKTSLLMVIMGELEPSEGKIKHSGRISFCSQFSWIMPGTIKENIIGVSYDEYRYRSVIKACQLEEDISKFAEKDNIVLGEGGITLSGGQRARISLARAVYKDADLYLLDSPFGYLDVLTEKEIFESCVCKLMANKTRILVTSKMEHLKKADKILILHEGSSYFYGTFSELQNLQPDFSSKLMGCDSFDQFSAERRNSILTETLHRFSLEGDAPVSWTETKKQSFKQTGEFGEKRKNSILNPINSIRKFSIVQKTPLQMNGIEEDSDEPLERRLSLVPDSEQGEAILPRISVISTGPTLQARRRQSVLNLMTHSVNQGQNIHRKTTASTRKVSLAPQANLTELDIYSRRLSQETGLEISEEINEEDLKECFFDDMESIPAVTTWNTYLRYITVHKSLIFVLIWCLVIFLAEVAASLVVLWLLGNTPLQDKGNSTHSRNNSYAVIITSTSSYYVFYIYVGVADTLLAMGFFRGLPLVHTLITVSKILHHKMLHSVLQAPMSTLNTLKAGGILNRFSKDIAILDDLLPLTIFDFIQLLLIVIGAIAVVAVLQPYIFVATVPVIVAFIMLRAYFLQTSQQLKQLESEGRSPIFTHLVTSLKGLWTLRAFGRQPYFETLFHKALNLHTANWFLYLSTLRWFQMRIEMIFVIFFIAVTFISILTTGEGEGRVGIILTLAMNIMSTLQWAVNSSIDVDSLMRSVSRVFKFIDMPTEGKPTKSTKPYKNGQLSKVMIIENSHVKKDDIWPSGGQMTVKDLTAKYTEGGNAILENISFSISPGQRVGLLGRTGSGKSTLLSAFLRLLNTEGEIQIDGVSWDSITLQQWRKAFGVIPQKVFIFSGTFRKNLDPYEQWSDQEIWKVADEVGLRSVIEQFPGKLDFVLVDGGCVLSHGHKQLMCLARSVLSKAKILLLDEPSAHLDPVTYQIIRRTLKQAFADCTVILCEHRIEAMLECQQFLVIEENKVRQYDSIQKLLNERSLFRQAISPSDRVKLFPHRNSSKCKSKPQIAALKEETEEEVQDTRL
Summary of the method: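 CFBE41o- cells transduced with adenovirus expressing CFTR ΔF508 and halide-sensitive YFP H148Q/I152L/F47L, then held 24 h at 27° C or with a CFTR modulator 24 h at 37° C. Iodide-induced quench recorded 2 min; EC50 from (1−F/F0) at 36 s versus concentration.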

CFTR G551D mutant = molecular target: T2, CFTR G551D mutant (Homo sapiens, UniProt P13569, G551D); test: YFP-halide influx assay for the CFTR-G551D mutation (HEK293 cells); details: forskolin 10.67 μM
T2 construct: expressed in transfected cells; host or cells: HEK293 cells, reverse transfection with plasmids
T2 sequence (P13569 whole entry G551D): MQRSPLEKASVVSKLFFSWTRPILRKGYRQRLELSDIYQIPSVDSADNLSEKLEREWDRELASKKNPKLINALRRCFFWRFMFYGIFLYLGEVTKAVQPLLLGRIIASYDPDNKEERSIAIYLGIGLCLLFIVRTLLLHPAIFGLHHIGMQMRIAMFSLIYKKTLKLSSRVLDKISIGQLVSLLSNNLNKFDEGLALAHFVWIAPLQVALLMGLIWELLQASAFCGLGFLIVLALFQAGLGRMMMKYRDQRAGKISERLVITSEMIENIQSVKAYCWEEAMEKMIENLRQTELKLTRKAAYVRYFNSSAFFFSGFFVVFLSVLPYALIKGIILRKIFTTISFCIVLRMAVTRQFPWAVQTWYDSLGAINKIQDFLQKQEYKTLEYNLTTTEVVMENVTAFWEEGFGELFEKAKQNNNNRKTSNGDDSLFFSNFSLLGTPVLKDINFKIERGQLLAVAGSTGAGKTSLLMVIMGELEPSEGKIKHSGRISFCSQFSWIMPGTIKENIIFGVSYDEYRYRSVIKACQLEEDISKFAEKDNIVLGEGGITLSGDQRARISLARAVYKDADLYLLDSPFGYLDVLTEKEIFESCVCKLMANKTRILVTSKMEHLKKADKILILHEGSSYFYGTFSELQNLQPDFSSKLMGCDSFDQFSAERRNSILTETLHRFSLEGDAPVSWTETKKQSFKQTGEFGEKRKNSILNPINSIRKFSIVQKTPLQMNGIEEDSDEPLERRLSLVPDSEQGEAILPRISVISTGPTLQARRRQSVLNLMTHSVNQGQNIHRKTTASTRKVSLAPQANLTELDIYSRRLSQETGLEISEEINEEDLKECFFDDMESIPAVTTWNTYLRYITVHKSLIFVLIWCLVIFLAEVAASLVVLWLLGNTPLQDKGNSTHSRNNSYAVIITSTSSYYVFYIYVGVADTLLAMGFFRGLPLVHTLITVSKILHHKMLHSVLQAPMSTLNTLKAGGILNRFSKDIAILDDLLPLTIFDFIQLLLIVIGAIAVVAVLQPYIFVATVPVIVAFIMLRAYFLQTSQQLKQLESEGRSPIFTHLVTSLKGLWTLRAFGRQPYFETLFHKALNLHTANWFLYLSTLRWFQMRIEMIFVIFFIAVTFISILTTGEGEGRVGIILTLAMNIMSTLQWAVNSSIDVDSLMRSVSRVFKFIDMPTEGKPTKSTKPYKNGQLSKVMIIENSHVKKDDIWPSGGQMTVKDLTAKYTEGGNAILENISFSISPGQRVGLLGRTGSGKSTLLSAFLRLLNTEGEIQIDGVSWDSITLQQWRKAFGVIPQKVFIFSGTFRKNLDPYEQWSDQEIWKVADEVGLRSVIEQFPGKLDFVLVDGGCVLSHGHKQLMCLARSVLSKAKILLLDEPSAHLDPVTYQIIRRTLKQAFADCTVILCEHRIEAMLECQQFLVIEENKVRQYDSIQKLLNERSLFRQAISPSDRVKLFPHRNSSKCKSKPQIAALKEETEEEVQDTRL
Summary of the method: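 HEK293 cells reverse-transfected with CFTR G551D and halide-sensitive YFP (H148Q/I152L/F47L), expressed 24 h at 37 °C. YFP fluorescence quenching recorded for 7 s after I⁻ injection. Response = 1−F/F0; EC50 derived from 1−F/F0 vs compound concentration.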

CFTR-G178R = molecular target: T3, CFTR-G178R (Homo sapiens, UniProt P13569, G178R); test: YFP-halide influx assay for the CFTR-G178R
T3 construct: expressed in transfected cells
T3 sequence (P13569 whole entry G178R): as the sequence (P13569 whole entry G551D) above, with G178R, D551G counted along it
Source text: (§1) The YFP halide influx assay measured the functionality of the cystic fibrosis Transmembrane Conductance regulator (CFTR) channels. The assay was used to evaluate the capacity of compounds to increase the channel opening of existing mutant CFTR channels in the membrane. It makes use of the observation that the yellow fluorescent protein (YFP) variant YFP H148Q, I152L, F47L has its fluorescence substantially quenched by halide ions like Cl^− and I^− (Galietta, L. J. V., Haggie, P. M., Verkman, A. S., 2001. Green fluorescent protein-based halide indicators with improved chloride and iodide affinities. FEBS Lett. 499, 220-224. doi:10.1016/S0014-5793(01)02561-3).
(§2) For this purpose, HEK293-cells were seeded in 96 well plates. During seeding, the cells were reverse-transfected with plasmid vectors that direct the expression of the CFTR G551D mutant and of the YFP reporter. Cells were incubated at 37° C., 5% CO2 for 24 hours so as to allow for sufficient expression of the CFTR protein.
(§3) The I^−-induced quenching of fluorescence was recorded immediately after injection of I^− for 7 seconds. The capacity of a compound to increase the channel opening was directly correlated with the decrease in fluorescence, and was expressed as (1−(fluorescence after 7 seconds (F)/fluorescence before injection (F0))) and an EC50 was derived from a (1−F/F0) vs compound concentration plot.
(§4) Similar YHA assays were developed for other channel gating defective or channel conductance defective CFTR mutants to determine effect of compound on channel activity. Examples of mutants are G178R, G1349D, S549N, R117H, R334W. This assay is also used for additional class I CFTR mutants, including G542X, W1282X; class II mutants including N1303K, and for class III mutants including S1251N; or wild-type CFTR.

CFTR-G1349D = molecular target: T4, CFTR-G1349D (Homo sapiens, UniProt P13569, G1349D); test: YFP-halide influx assay for the CFTR-G1349D
T4 construct: expressed in transfected cells
T4 sequence (P13569 whole entry G1349D): as the sequence (P13569 whole entry G551D) above, with D551G, G1349D counted along it
Source text: as §1, §2, §3, §4

CFTR-S549N = molecular target: T5, CFTR-S549N (Homo sapiens, UniProt P13569, S549N); test: YFP-halide influx assay for the CFTR-S549N; set-up: % Activation: concentration or dose not given beside the values
T5 construct: expressed in transfected cells
T5 sequence (P13569 whole entry S549N): as the sequence (P13569 whole entry G551D) above, with S549N, D551G counted along it
Source text: as §1, §2, §3, §4

CFTR-R117H = molecular target: T6, CFTR-R117H (Homo sapiens, UniProt P13569, R117H); test: YFP-halide influx assay for the CFTR-R117H
T6 construct: expressed in transfected cells
T6 sequence (P13569 whole entry R117H): as the sequence (P13569 whole entry G551D) above, with R117H, D551G counted along it
Source text: as §1, §2, §3, §4

Row | Structure (SMILES) | % Activation (CFTR ΔF508 mutant) [%] | EC50 (CFTR ΔF508 mutant) [nM] | % Activation (CFTR G551D mutant) [%] | EC50 (CFTR G551D mutant) [nM] | % Activation (CFTR-G178R) [%] | EC50 (CFTR-G178R) [nM] | % Activation (CFTR-G1349D) [%] | EC50 (CFTR-G1349D) [nM] | % Activation (CFTR-S549N) [%] | EC50 (CFTR-S549N) [nM] | % Activation (CFTR-R117H) [%] | EC50 (CFTR-R117H) [nM]
1 | Nc1cc(S(=O)(=O)c2ccc(OC(F)(F)F)cc2)cnc1C(=O)N[C@@H]1COC[C@H]1O (racemic) [Compound 74, rac-3-amino-N-[(3R,4S)-4-hydroxytetrahydrofuran-3-yl]-5-{[4-(trifluoromethoxy)phenyl]sulfonyl}pyridine-2-carboxamide] | 110.0 | 17.2 | 65.0 | 839 | 84.3 | 348 | 86.8 | 511 | 91.4 | 567 | 100.0 | 866
2 | CC(C)(C)C(O)CNC(=O)c1ncc(S(=O)(=O)c2ccc(OC(F)(F)F)cc2)cc1N (centres unmarked) [Compound 16, 3-amino-N-(2-hydroxy-3,3-dimethylbutyl)-5-{[4-(trifluoromethoxy)phenyl]sulfonyl}pyridine-2-carboxamide] | 106.5 | 15.7 | 96.2 | 1670 | 102.0 | 1010 | 99.6 | 698 | 114.0 | > 3330 | 112.0 | 431
3 | Nc1cc(S(=O)(=O)c2ccccc2OC(F)(F)F)cnc1C(=O)NCCO [Compound 75, 3-amino-N-(2-hydroxyethyl)-5-{[2-(trifluoromethoxy)phenyl]sulfonyl}pyridine-2-carboxamide] | 121.0 | 7.6 | 68.5 | 1510 | 94.3 | 323 | 98.7 | 284 |  | 251 | 98.4 | 472
4 | Nc1cc(S(=O)(=O)c2ccccc2OC(F)(F)F)cnc1C(=O)N1CC(F)(F)C1 [Compound 78, (3-amino-5-{[2-(trifluoromethoxy)phenyl]sulfonyl}pyridin-2-yl)(3,3-difluoroazetidin-1-yl)methanone] | 123.0 | 2.2 | 55.9 | 609 | 73 | 58.1 | 85.36 | 52.3 | 80.37 | 116 | 89.74 | 59.5
5 | Nc1cc(S(=O)(=O)c2ccc(OC(F)(F)F)cc2)cnc1C(=O)N1CC(O)(C(F)(F)F)C1 [Compound 79, (3-amino-5-{[4-(trifluoromethoxy)phenyl]sulfonyl}pyridin-2-yl)[3-hydroxy-3-(trifluoromethyl)azetidin-1-yl]methanone] | 99.5 | 3.3 | 48.9 | 256 | 74.5 | 31.3 | 83.08 | 61.4 | 88.09 | 44.3 | 103.1 | 22.2
6 | COCC(O)CNC(=O)c1ncc(S(=O)(=O)c2ccccc2OC(F)(F)F)cc1N (centres unmarked) [Compound 80, 3-amino-N-(2-hydroxy-3-methoxypropyl)-5-{[2-(trifluoromethoxy)phenyl]sulfonyl}pyridine-2-carboxamide] | 102.0 | 3.2 | 95.1 | 946 | 95.08 | 81.1 | 98.43 | 119 | 108.5 | 144 | 111.5 | 408
7 | C[C@H](O)CNC(=O)c1ncc(S(=O)(=O)c2ccccc2OC(F)(F)F)cc1N [Compound 82, 3-amino-N-[(2S)-2-hydroxypropyl]-5-{[2-(trifluoromethoxy)phenyl]sulfonyl}pyridine-2-carboxamide] | 106.0 | 2.7 | 89.9 | 795 | 106.7 | 84.7 | 92.74 | 102 | 106.9 | 122 | 128.3 | 1050
8 | Nc1cc(S(=O)(=O)c2ccc(OC(F)(F)F)cc2)cnc1C(=O)N1CC(O)(C2CC2)C1 [Compound 86, (3-amino-5-{[4-(trifluoromethoxy)phenyl]sulfonyl}pyridin-2-yl)(3-cyclopropyl-3-hydroxyazetidin-1-yl)methanone] | 122.0 | 3.1 | 69.3 | 332 | 78.08 | 32.5 | 85.79 | 55.3 | 98.52 | 139 | 89.91 | 59.5
9 | Nc1cc(S(=O)(=O)c2ccc(F)cc2)cnc1C(=O)N1CC(O)(C(F)(F)F)C1 [Compound 176, {3-amino-5-[(4-fluorophenyl)sulfonyl]pyridin-2-yl}[3-hydroxy-3-(trifluoromethyl)azetidin-1-yl]methanone] | 93.4 | 1 | 46.0 | 69.4 | 79.1 | 12.7 | 72.8 | 29.5 | 92.0 | 25.7 | 111.0 | 22.7
10 | COC[C@H](O)CNC(=O)c1ncc(S(=O)(=O)c2ccccc2OC(F)(F)F)cc1N [Compound 177, 3-amino-N-[(2R)-2-hydroxy-3-methoxypropyl]-5-{[2-(trifluoromethoxy)phenyl]sulfonyl}pyridine-2-carboxamide] | 102.1 | 3.6 | 91.4 | 430 | 104.0 | 77.8 | 96.0 | 97.9 | 104.0 | 80.4 | 103.7 | 253
11 | Nc1cc(S(=O)(=O)c2ccc(C(F)(F)F)cc2)cnc1C(=O)NCCO [Compound 217, 3-amino-N-(2-hydroxyethyl)-5-{[4-(trifluoromethyl)phenyl]sulfonyl}pyridine-2-carboxamide] | 103.4 | 36 | 51.8 | 3030 | 63.9 | 933 | 62.9 | 1350 | 55.9 | 401 | 92.1 | 765
12 | Nc1cc(S(=O)(=O)c2ccc(C(F)(F)F)cc2)cnc1C(=O)N1CC(OCC(F)F)C1 [Compound 231, (3-amino-5-{[4-(trifluoromethyl)phenyl]sulfonyl}pyridin-2-yl)[3-(2,2-difluoroethoxy)azetidin-1-yl]methanone] | 103.3 | 52.3 | 59.2 | 450 | 98.4 | 305 | 83.9 | 129 | 88.2 | 256 | 91.3 | 442
